Measured values: publication PMC4274664, “Arabidopsis cytosolic acyl-CoA-binding proteins ACBP4, ACBP5 and ACBP6 have overlapping but distinct roles in seed development” (Bioscience Reports, 2014)
Like-named read-outs stand apart in the source and are kept apart here.

Legend:
rAtACBP4 = biological target: T1, rAtACBP4 (Arabidopsis thaliana, UniProt Q9MA55); test: ITC of acyl-CoA esters binding to rAtACBP4; conditions: for n: mean of three experiments±S.D., stoichiometry of ligand-to-protein binding; for ΔG: in kcal/mol
T1 sequence (Q9MA55 1-668): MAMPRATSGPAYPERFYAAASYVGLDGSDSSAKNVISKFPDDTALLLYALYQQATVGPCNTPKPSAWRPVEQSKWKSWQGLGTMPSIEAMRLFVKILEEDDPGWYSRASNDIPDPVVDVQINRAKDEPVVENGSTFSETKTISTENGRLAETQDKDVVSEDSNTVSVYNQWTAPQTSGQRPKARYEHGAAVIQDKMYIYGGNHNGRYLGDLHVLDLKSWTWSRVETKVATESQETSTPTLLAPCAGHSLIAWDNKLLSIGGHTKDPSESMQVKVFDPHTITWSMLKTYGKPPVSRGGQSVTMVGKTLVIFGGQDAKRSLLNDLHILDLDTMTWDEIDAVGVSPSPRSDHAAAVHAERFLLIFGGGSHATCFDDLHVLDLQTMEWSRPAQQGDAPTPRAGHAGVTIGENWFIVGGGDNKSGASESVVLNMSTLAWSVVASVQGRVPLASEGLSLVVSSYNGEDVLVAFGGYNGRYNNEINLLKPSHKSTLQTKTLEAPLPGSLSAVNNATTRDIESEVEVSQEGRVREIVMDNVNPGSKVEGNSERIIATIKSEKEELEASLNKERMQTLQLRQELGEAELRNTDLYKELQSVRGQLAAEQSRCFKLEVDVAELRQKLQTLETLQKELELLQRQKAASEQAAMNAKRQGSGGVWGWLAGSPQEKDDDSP
From the text: (§1) The protein expression plasmids containing full-length AtACBP4 and AtACBP5 cDNA were previously constructed in the vector pRSETB (Invitrogen) as pAT184 and pAT185, respectively. Recombinant (His)6-AtACBP4 and (His)6-AtACBP5 proteins (rAtACBP4 and rAtACBP5) were expressed in Escherichia coli, purified and refolded according to Leung et al.. The coding sequence of AtACBP6 was amplified by PCR with primer pairs ACBP-F1 and ACBP-R1 and cloned into expression vector pEXP5-NT/TOPO (Invitrogen) to generate plasmid pEXP-ACBP6. Sequences of primers are listed in Supplementary Table S1. Recombinant (His)6-AtACBP6 (rAtACBP6) was expressed in E. coli and purified following Chye. The three recombinant proteins were dialysed in 10 mM sodium phosphate buffer (pH 7.0). Protein concentrations were determined by the standard Bradford assay (Bio-Rad).
(§2) Calorimetric titration was performed with a MicroCal iTC200 system (GE Healthcare) at 30°C. Long-chain acyl-CoA esters (Avanti Polar Lipids, Inc.) were dissolved in 10 mM sodium phosphate buffer (pH 7.0) to a final concentration of 0.25, 0.5 and 1 mM. The solution was degassed and loaded into a syringe, while 15 μM rAtACBP6, 6 μM rAtACBP4 or 60 μM rAtACBP5, was placed into the sample cell. For all titrations, 1.8 μl ligand was injected into the sample cell at 150 s intervals with a stirring speed of 1000 rpm. The titrations were completed after 20 injections. All data were collected automatically, and non-specific heat effects were estimated and corrected after saturation following the instructions of the manufacturer. Raw data were integrated and analysed using the Origin v.7.0 software accompanying the calorimeter.

rAtACBP5 = biological target: T2, rAtACBP5 (Arabidopsis thaliana, UniProt Q8RWD9); test: ITC of acyl-CoA esters binding to rAtACBP5; conditions: for n: mean of three experiments±S.D., stoichiometry of ligand-to-protein binding; for ΔG: in kcal/mol
T2 sequence (Q8RWD9 1-648): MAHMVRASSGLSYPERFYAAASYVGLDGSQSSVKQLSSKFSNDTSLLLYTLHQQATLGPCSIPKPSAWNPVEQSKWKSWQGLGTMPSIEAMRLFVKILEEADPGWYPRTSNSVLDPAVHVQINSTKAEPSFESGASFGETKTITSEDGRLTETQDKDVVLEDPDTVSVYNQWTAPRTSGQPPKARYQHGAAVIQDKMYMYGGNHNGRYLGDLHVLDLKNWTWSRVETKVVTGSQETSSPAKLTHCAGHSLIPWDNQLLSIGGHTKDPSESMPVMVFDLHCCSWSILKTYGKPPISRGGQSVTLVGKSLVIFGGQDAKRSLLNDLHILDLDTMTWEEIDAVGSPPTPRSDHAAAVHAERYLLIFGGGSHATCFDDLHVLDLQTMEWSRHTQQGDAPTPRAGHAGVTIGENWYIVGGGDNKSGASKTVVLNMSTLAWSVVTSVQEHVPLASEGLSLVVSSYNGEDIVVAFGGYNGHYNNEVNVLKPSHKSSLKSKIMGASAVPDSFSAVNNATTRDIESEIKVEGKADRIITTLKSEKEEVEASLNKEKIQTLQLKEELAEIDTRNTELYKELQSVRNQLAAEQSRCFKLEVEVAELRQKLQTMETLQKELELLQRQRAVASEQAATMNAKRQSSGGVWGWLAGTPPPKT
From the text: as §1, §2

rAtACBP6 = biological target: T3, rAtACBP6 (Arabidopsis thaliana, UniProt P57752); test: ITC of acyl-CoA esters binding to rAtACBP6; conditions: for n: mean of three experiments±S.D., stoichiometry of ligand-to-protein binding; for ΔG: in kcal/mol
T3 construct: made in house; host or cells: Escherichia coli
T3 sequence (P57752 1-92): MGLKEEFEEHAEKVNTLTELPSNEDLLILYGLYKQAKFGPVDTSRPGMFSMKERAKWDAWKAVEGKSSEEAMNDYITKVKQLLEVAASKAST
From the text: as §1, §2

[1] = test system: Arabidopsis seeds (Col-0 and acbp double/triple mutants); test: Seed germination under ABA treatment; format: in vivo; conditions: for seeds germinated / germination rate: 0.2 μM ABA, within 2 days
Method: Seeds of wild-type Arabidopsis Col-0 were purchased from the ABRC (Arabidopsis Biological Resource Center). The double and triple mutants of AtACBP4, AtACBP5 and AtACBP6 were generated by crossing the respective single mutants. To sterilize Arabidopsis seeds, a solution containing 20% bleach and 0.1% (v/v) Tween 20 was used. Seeds were subjected to 20 min vigorous shaking in this solution, washed six times in distilled water, and then spread on MS (Murashige and Skoog) medium (Sigma-Aldrich) containing 2% (w/v) sucrose, and 0, 0.2 or 0.4 μM ABA (abscisic acid). After 4°C stratification for 2 days, the plates were placed under 16 h-light/8 h-dark cycles (22°C) in a tissue culture room. The rates of seed germination were scored when radicle protrusion occurred.

10-kDa bovine ACBP = biological target: 10-kDa bovine ACBP; set-up: method as in PMID 8166635; conditions: read-out: binding affinity; cited from earlier work
yeast ACBP = biological target: yeast ACBP; set-up: method as in PMID 8093000; conditions: read-out: binding affinity; cited from earlier work
[2] = ITC, 30°C, 10 mM sodium phosphate buffer pH 7.0
[3] = ITC, 30°C, 10 mM sodium phosphate buffer pH 7.0, mean of three±S.D.
[4] = ITC, 30°C, 10 mM sodium phosphate buffer pH 7.0, mean of three±S.D., read-out: Kd

| Kd (rAtACBP4; [4]) [µM] | Kd (rAtACBP5; [4]) [µM] | Kd (rAtACBP6; [4]) [µM] | SMILES | ΔS (rAtACBP4; [2]) | n (rAtACBP4; [2]) | ΔH (rAtACBP4; [3]) [kcal/mol] | ΔG (rAtACBP4; [3]) | ΔS (rAtACBP5; [2]) | n (rAtACBP5; [2]) | ΔH (rAtACBP5; [3]) [kcal/mol] | ΔG (rAtACBP5; [3]) | ΔS (rAtACBP6; [2]) | n (rAtACBP6; [2]) | ΔH (rAtACBP6; [3]) [kcal/mol] | ΔG (rAtACBP6; [3]) | further results |
| --- | --- | --- | --- | --- | --- | --- | --- | --- | --- | --- | --- | --- | --- | --- | --- | --- |
| 2.7 ± 1.6 | 35.4 ± 1.4 | 0.0606 ± 0.0024 | CCCCCCCCCCCCCCCCCC(=O)SCCNC(=O)CCNC(=O)[C@H](O)C(C)(C)COP(=O)(O)OP(=O)(O)OC[C@H]1O[C@@H](n2cnc3c(N)ncnc32)[C@H](O)[C@@H]1OP(=O)(O)O [18:0] | -0.6 cal/(mol·K) | 1.1 ± 0.1 | -8.9 ± 1 | −8.7±1.0 | -37.2 cal/(mol·K) | 1 | -17.4 ± 0.1 | −6.2±0.0 | -6.6 cal/(mol·K) | 1 | -12 ± 2.5 | −10.0±0.3 |  |
|  |  |  | CCCCCCCCCCCCCC(=O)SCCNC(=O)CCNC(=O)[C@H](O)C(C)(C)COP(=O)(O)OP(=O)(O)OC[C@H]1O[C@@H](n2cnc3c(N)ncnc32)[C@H](O)[C@@H]1OP(=O)(O)O [14:0] | -158 cal/(mol·K) | 1 | -53.5 ± 6.9 | −5.8±0.1 | 7.7 cal/(mol·K) | 0.9 | -3.7 ± 1.2 | −6.1±0.0 | -4.6 cal/(mol·K) | 1 | -11.6 ± 1.4 | −10.2±0.2 | Kd (rAtACBP4): 65.3 ± 22.6 µM; Kd (rAtACBP5): 41.9 ± 2.2 µM; Kd (rAtACBP6): 0.0387 ± 0.0045 µM |
|  |  |  | CC1=CC(=O)CC(C)(C)[C@@]1(O)/C=C/C(C)=C\C(=O)O [ABA, abscisic acid] |  |  |  |  |  |  |  |  |  |  |  |  | seeds germinated ([1]; Col-0 seeds): 60%; seeds germinated ([1]; acbp4acbp5acbp6 seeds): 19%; germination rate ([1]; acbp4acbp5 seeds): 40%; germination rate ([1]; acbp4acbp6 seeds): 32%; germination rate ([1]; acbp5acbp6 seeds): 33%; germination rate in comparison with Col-0 ([1]; all double and triple mutants, 0.4 μM ABA): lower germination rates |
| 95.2 | 74.4 ± 3.5 | 0.0453 ± 0.0043 | CCCCCCCC/C=C\CCCCCCCC(=O)SCCNC(=O)CCNC(=O)[C@H](O)C(C)(C)COP(=O)(O)OP(=O)(O)OC[C@H]1O[C@@H](n2cnc3c(N)ncnc32)[C@H](O)[C@@H]1OP(=O)(O)O [18:1, oleoyl-CoA] | -4.3 cal/(mol·K) | 2.1 | -6.9 ± 0.1 | −5.6±0.0 | -1.8 cal/(mol·K) | 0.9 | -6.2 ± 0.2 | −5.7±0.0 | 11.4 cal/(mol·K) | 1.9 ± 0.1 | -6.7 ± 3.8 | −10.2±0.1 | n (stoichiometry of ligand-to-protein binding) (rAtACBP6; ITC): 1.9 |
| 73.8 ± 0.3 | 64.1 | 0.0364 ± 0.0049 | CCCCC/C=C\C/C=C\CCCCCCCC(=O)SCCNC(=O)CCNC(=O)[C@H](O)C(C)(C)COP(=O)(O)OP(=O)(O)OC[C@H]1O[C@@H](n2cnc3c(N)ncnc32)[C@H](O)[C@@H]1OP(=O)(O)O [18:2, linoleoyl-CoA] | -224 cal/(mol·K) | 1 | -73.7 ± 2.6 | −5.8±0.2 | -14.7 cal/(mol·K) | 1 | -10.2 ± 0.2 | −5.8±0.0 | -6.7 cal/(mol·K) | 1.1 | -12.3 ± 1.4 | −10.2±0.2 |  |

| SMILES | Kd (rAtACBP4; [4]) [µM] | Kd (rAtACBP5; [4]) [µM] | Kd (rAtACBP6; [4]) [µM] | ΔS (rAtACBP4; [2]) | n (rAtACBP4; [2]) | ΔH (rAtACBP4; [3]) [kcal/mol] | ΔG (rAtACBP4; [3]) | ΔS (rAtACBP5; [2]) | n (rAtACBP5; [2]) | ΔH (rAtACBP5; [3]) [kcal/mol] | ΔG (rAtACBP5; [3]) | ΔS (rAtACBP6; [2]) | n (rAtACBP6; [2]) | ΔH (rAtACBP6; [3]) [kcal/mol] | ΔG (rAtACBP6; [3]) | further results |
| --- | --- | --- | --- | --- | --- | --- | --- | --- | --- | --- | --- | --- | --- | --- | --- | --- |
| CC/C=C\C/C=C\C/C=C\CCCCCCCC(=O)SCCNC(=O)CCNC(=O)[C@H](O)C(C)(C)COP(=O)(O)OP(=O)(O)OC[C@H]1O[C@@H](n2cnc3c(N)ncnc32)[C@H](O)[C@@H]1OP(=O)(O)O [18:3, linolenoyl-CoA] | 189 ± 0.5 | 92.4 ± 10.7 | 0.0841 ± 0.0029 | -300 cal/(mol·K) | 1 | -96.2 ± 5.3 | −5.1±0.0 | -7.4 cal/(mol·K) | 1.2 ± 0.1 | -7.8 ± 1.3 | −5.6±0.1 | -7.7 cal/(mol·K) | 1.1 | -12.1 ± 1.3 | −9.7±0.1 |  |
| CCCCCCCCCCCCCCCC(=O)SCCNC(=O)CCNC(=O)[C@H](O)C(C)(C)COP(=O)(O)OP(=O)(O)OC[C@H]1O[C@@H](n2cnc3c(N)ncnc32)[C@H](O)[C@@H]1OP(=O)(O)O [16:0, palmitoyl-CoA] | 23.5 ± 27.1 | 35.7 ± 1 | 0.0359 ± 0.0084 | -236 cal/(mol·K) | 1 | -77.4 ± 2.5 | −6.1±0.2 | -16.7 cal/(mol·K) | 0.9 | -11.2 ± 0.5 | −6.2±0.0 | -11.5 cal/(mol·K) | 1 ± 0.1 | -13.7 ± 2.4 | −10.2±0.0 | Kd (10-kDa bovine ACBP): 4.5 pM; weaker binding than armadillo ACBP (rAtACBP4; rAtACBP4 versus armadillo ACBP): 1000 fold; weaker binding than armadillo ACBP (rAtACBP5; rAtACBP5 versus armadillo ACBP): 1000 fold; Kd (yeast ACBP): 0.0055 µM |
